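Exposure lasted 48 hours, with cells grown in 96-well plates and compounds tested at five concentrations. GI50 = concentration required for 50% inhibition of growth.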 Active and inactive are the calls of the source. No stated cut-off is given here; in the data, active = GI50 up to about 1.1 µM and inactive = higher.
How the values were obtained:
Assay in all cases: DTP human tumour cell line panel, 48 h
[1] = tested on: SW-620
[2] = tested on: SNB-75
[3] = tested on: CAKI-1
[4] = tested on: MOLT-4
[5] = tested on: KM12
[6] = tested on: U-251
[7] = tested on: NCI-H460
[8] = tested on: UACC-257
[9] = tested on: NCI-H23
[10] = tested on: EKVX
[11] = tested on: ACHN
[12] = tested on: SK-MEL-2
[13] = tested on: COLO 205
[14] = tested on: MDA-MB-231
[15] = tested on: OVCAR-4
[16] = tested on: CCRF-CEM
[17] = tested on: 786-0
[18] = tested on: A549
[19] = tested on: A498

Compound | GI50 [1] | GI50 [2] | GI50 [3] | GI50 [4] | GI50 [5] | GI50 [6] | GI50 [7] | GI50 [8] | GI50 [9] | GI50 [10] | GI50 [11] | GI50 [12] | GI50 [13] | GI50 [14] | GI50 [15] | GI50 [16] | GI50 [17] | GI50 [18] | GI50 [19]
CCOC(=O)C(NC(=O)c1ccco1)(Nc1nc2ccc(OCC)cc2s1)C(F)(F)F (stereo not drawn) | 61.5 µM (inactive) | 19.8 µM (inactive) | 17.3 µM (inactive) | 20.1 µM (inactive) | 21.8 µM (inactive) | 35.2 µM (inactive) | 28.1 µM (inactive) | 28.4 µM (inactive) | 27.3 µM (inactive) | 32.8 µM (inactive) | 26.8 µM (inactive) | 32.7 µM (inactive) | 18.5 µM (inactive) | 55.3 µM (inactive) | 30.1 µM (inactive) | 23.8 µM (inactive) | 21.7 µM (inactive) | 28.8 µM (inactive) | –
CC(=O)c1ccc2c3c1O[C@H]1c4[nH]c5ccccc5c4C[C@@]4(O)[C@@H](C2)N(CC2CC2)CC[C@]314 | 0.179 µM (active) | – | 20 µM (inactive) | 17.1 µM (inactive) | 21.3 µM (inactive) | 12.2 µM (inactive) | 0.497 µM (active) | 16.8 µM (inactive) | 17.7 µM (inactive) | 20.2 µM (inactive) | 17.2 µM (inactive) | 16.6 µM (inactive) | 14.9 µM (inactive) | 12.8 µM (inactive) | 20.6 µM (inactive) | 2.06 µM (inactive) | 15 µM (inactive) | 1.15 µM (inactive) | 0.333 µM (active)
Cc1nnc(N/N=C2/C(=O)Nc3ccccc32)nc1O | > 100 µM (inactive) | – | – | > 100 µM (inactive) | > 100 µM (inactive) | > 100 µM (inactive) | > 100 µM (inactive) | > 100 µM (inactive) | – | > 100 µM (inactive) | > 100 µM (inactive) | > 100 µM (inactive) | – | > 100 µM (inactive) | > 100 µM (inactive) | – | > 100 µM (inactive) | > 100 µM (inactive) | > 100 µM (inactive)
S=C(N1CCN(c2cccc(Cl)c2)CC1)N1CCN(c2cccc(Cl)c2)CC1 | > 100 µM (inactive) | – | 25.2 µM (inactive) | 16 µM (inactive) | 24.4 µM (inactive) | 87.3 µM (inactive) | – | 77.3 µM (inactive) | > 100 µM (inactive) | 35 µM (inactive) | 50.8 µM (inactive) | > 100 µM (inactive) | 22 µM (inactive) | 11 µM (inactive) | 28.9 µM (inactive) | 5.71 µM (inactive) | 33.3 µM (inactive) | 68.1 µM (inactive) | –
COc1ccc(Cn2c3c(cc(OC(C)=O)c2=O)Cc2ccccc2-3)cc1 | 6.64 µM (inactive) | 11.7 µM (inactive) | 10.7 µM (inactive) | 2.88 µM (inactive) | 11.4 µM (inactive) | 8.65 µM (inactive) | 3.97 µM (inactive) | 2.28 µM (inactive) | 10.5 µM (inactive) | 7.76 µM (inactive) | 7.91 µM (inactive) | 4.61 µM (inactive) | 20.6 µM (inactive) | 13.2 µM (inactive) | 9.95 µM (inactive) | 2 µM (inactive) | 5.33 µM (inactive) | 13.9 µM (inactive) | –
COc1ccc(/C(Cl)=C(\C#N)c2ccc(OC)c(OC)c2)cc1OC | > 100 µM (inactive) | – | 54.2 µM (inactive) | 78.9 µM (inactive) | – | 40.1 µM (inactive) | 36.8 µM (inactive) | > 100 µM (inactive) | 80.2 µM (inactive) | 21.3 µM (inactive) | 93.8 µM (inactive) | 96.2 µM (inactive) | 44.5 µM (inactive) | 35.6 µM (inactive) | 81.5 µM (inactive) | > 10 µM (inactive) | > 100 µM (inactive) | > 100 µM (inactive) | > 100 µM (inactive)
O=C(Nc1cccc2cnccc12)c1cc2c(cc1Cl)Sc1nccn1S2(=O)=O | 15.5 µM (inactive) | 15.5 µM (inactive) | 25.8 µM (inactive) | 12.9 µM (inactive) | 4.66 µM (inactive) | 10.4 µM (inactive) | 7.82 µM (inactive) | 18.1 µM (inactive) | 6.67 µM (inactive) | 20.7 µM (inactive) | 28.3 µM (inactive) | 13.5 µM (inactive) | 15.3 µM (inactive) | 14.9 µM (inactive) | 15.2 µM (inactive) | – | 10.9 µM (inactive) | 27.7 µM (inactive) | –
CC(=O)c1cccc(Nc2nc3ccc(Cl)cc3c3[nH]c4ccccc4c23)c1 | 4.35 µM (inactive) | – | 3.03 µM (inactive) | – | 4.94 µM (inactive) | 2.12 µM (inactive) | 1.71 µM (inactive) | 13.4 µM (inactive) | 12.8 µM (inactive) | 3.54 µM (inactive) | 4.11 µM (inactive) | 3.36 µM (inactive) | 2.07 µM (inactive) | 11.6 µM (inactive) | – | 27.4 µM (inactive) | 1.85 µM (inactive) | 2.24 µM (inactive) | –
